≈ marks a conversion by molar mass, not a printed value.
Experiments:
Assay type in all cases: functional
[1] = tested on: Candida albicans; experiment: Antifungal activity against azole-resistant Candida albicans ATCC 10231 assessed as reduction in fungal growth by XTT assay
[2] = tested on: Candida albicans; experiment: Antifungal activity against Candida albicans assessed as reduction in fungal growth incubated for 72 hrs by agar well diffusion method
[3] = tested on: Aspergillus fumigatus; experiment: Antifungal activity against Aspergillus fumigatus assessed as reduction in fungal growth incubated for 72 hrs by agar well diffusion method
[4] = tested on: Cryptococcus neoformans; experiment: Antifungal activity against Cryptococcus neoformans
[5] = tested on: Candida albicans; experiment: Antifungal activity against Candida albicans
[6] = tested on: Candida albicans; experiment: Antifungal activity against Candida albicans assessed as fungal growth inhibition
[7] = tested on: Candida albicans; experiment: Antifungal activity against Candida albicans ATCC 10231 assessed as zone of inhibition incubated for 24 hrs by disc diffusion method
[8] = tested on: Candida albicans; experiment: Antifungal activity against Candida albicans NRRL-Y477 assessed as zone of inhibition by disc diffusion method
[9] = tested on: Aspergillus niger; experiment: Antifungal activity against Aspergillus niger ATCC 16404 assessed as inhibition of mycelial growth relative to control
[10] = tested on: Candida albicans; experiment: Antifungal activity against Candida albicans ATCC 10231 assessed as inhibition of mycelial growth relative to control
[11] = tested on: Aspergillus flavus; experiment: Antifungal activity against Aspergillus flavus assessed as zone of inhibition by disc diffusion method
[12] = tested on: Candida albicans; experiment: Antifungal activity against Candida albicans assessed as zone of inhibition by disc diffusion method
[13] = tested on: Candida albicans; experiment: Antifungal activity against Candida albicans ATCC 90028 assessed as growth inhibition incubated for 36 hrs by resazurin dye based assay
[14] = tested on: Candida albicans; experiment: Antifungal activity against Candida albicans assessed as reduction in fungal growth incubated for 18 hrs by broth microdilution method
[15] = tested on: Aspergillus fumigatus; experiment: Antifungal activity against Aspergillus fumigatus
[16] = tested on: Geotrichum candidum; experiment: Antifungal activity against Geotrichum candidum
[17] = tested on: Microsporum audouinii; experiment: Antifungal activity against Microsporum audouinii
[18] = tested on: Trichophyton rubrum; experiment: Antifungal activity against Trichophyton rubrum assessed as diameter of zone inhibition
[19] = tested on: Candida albicans; experiment: Antifungal activity against Candida albicans RCMB 005036 assessed as diameter of zone inhibition
[20] = tested on: Nakaseomyces glabratus; experiment: Antifungal activity against Candida glabrata ATCC 90030
[21] = tested on: Candida albicans; experiment: Antifungal activity against Candida albicans ATCC 10231
[22] = tested on: Aspergillus fumigatus; experiment: Antifungal activity against Aspergillus fumigatus RCMB 002568 assessed as diameter of zone inhibition
[23] = tested on: Pichia kudriavzevii; experiment: Antifungal activity against Candida krusei ATCC 6258
[24] = tested on: Aspergillus fumigatus; experiment: Antifungal activity against Aspergillus fumigatus assessed as reduction in fungal growth incubated for 20 to 24 hrs by CLSI based micro-dilution analysis; conditions: time 20-24 hrs
[25] = tested on: Candida parapsilosis; experiment: Antifungal activity against Candida parapsilosis ATCC 22019; conditions: Lodderomyces parapsilosis
[26] = tested on: Candida albicans; experiment: Antifungal activity against azole-resistant Candida albicans ATCC 18804 assessed as reduction in fungal growth by XTT assay
[27] = tested on: Candida albicans; experiment: Antifungal activity against Candida albicans SC5314 assessed as reduction in fungal growth incubated for 72 hrs by broth microdilution method
[28] = tested on: Aspergillus terreus; experiment: Antifungal activity against Aspergillus terreus assessed as zone of inhibition by disc diffusion method
[29] = tested on: Talaromyces purpureogenus; experiment: Antifungal activity against Talaromyces purpureogenus assessed as zone of inhibition by disc diffusion method
[30] = tested on: Aspergillus niger; experiment: Antifungal activity against Aspergillus niger assessed as zone of inhibition by disc diffusion method
[31] = tested on: Candida albicans; experiment: Antifungal activity against Candida albicans ATCC 90028 assessed as reduction in microbial growth
[32] = tested on: Candida tropicalis; experiment: Antifungal activity against Candida tropicalis ATCC 750 assessed as reduction in microbial growth
[33] = tested on: Nakaseomyces glabratus; experiment: Antifungal activity against Candida glabrata ATCC 90030 assessed as reduction in microbial growth
[34] = tested on: Aspergillus niger; experiment: Antifungal activity against Aspergillus niger MTCC 282 assessed as reduction in microbial growth after 24 hrs by broth micro-dilution method
[35] = tested on: Aspergillus fumigatus; experiment: Antifungal activity against Aspergillus fumigatus assessed as reduction in fungal growth
[36] = tested on: Candida albicans; experiment: Antifungal activity against azole-resistant Candida albicans ATCC 10231 assessed as fungal growth inhibition incubated for 24 hrs by CLSI protocol based broth microdilution method
[37] = tested on: Candida albicans; experiment: Antifungal activity against azole-resistant Candida albicans ATCC 18804 assessed as fungal growth inhibition incubated for 24 hrs by CLSI protocol based broth microdilution method

## O=C1N=C(n2[nH]c(=O)ccc2=O)S/C1=N\Nc1ccc(-c2ccc(N/N=C3/SC(n4[nH]c(=O)ccc4=O)=NC3=O)cc2)cc1
[1]
  MIC: 3.1 µg/mL (≈ 4.93 µM)

## Cc1nnc2c(C#N)c(N)n(-c3ccc(N)cc3)nc1-2
[2]
  MIC: 3.9 µg/mL (≈ 14.7 µM)
[3]
  MIC: 0.9 µg/mL (≈ 3.39 µM)

## O=c1cc[nH]c(=O)n1N=C1CC(c2ccc(O)cc2)SC(c2ccc(O)cc2)C1 (centres undefined)
[4]
  MIC: 4 µg/mL (≈ 9.77 µM)
[5]
  MIC: 0.25 µg/mL (≈ 0.611 µM)

## C[C@@H]1[C@H](O)[C@@H](C)/C=C/C=C/CC/C=C/C=C/C=C/C=C/[C@H](O[C@@H]2O[C@H](C)[C@@H](O)[C@H](N)[C@@H]2O)C[C@@H]2O[C@](O)(C[C@@H](O)[C@H](O)CC[C@@H](O)C[C@@H](O)C[C@@H](O)CC(=O)O[C@H]1C)C[C@H](O)[C@H]2C(=O)O
[6]
  MIC: 1 µg/mL (≈ 1.08 µM)
[7]
  inhibition zone (IZ): 26 mm
[8]
  inhibition zone (IZ): 23 mm
[9]
  inhibition (INH): 66%
[10]
  inhibition (INH): 63%

## CC(=O)N/C(=C\c1ccc(Cl)cc1)c1nc2c(=O)[nH]c(=O)n(Cc3ccccc3Cl)c2[nH]1
[11]
  inhibition zone (IZ): 10 mm
[12]
  inhibition zone (IZ): 12 mm

## FC(F)(F)c1nnc2n1CCN(C(=S)Nc1ccc(Br)cc1)C2
[13]
  MIC: 6.25 µg/mL (≈ 15.4 µM)

## Cc1cc(=O)n2nc(C(=O)NN)nc2[nH]1
[14]
  MIC: 4 µg/mL (≈ 19.2 µM)

## Clc1ccccc1C(c1ccccc1)(c1ccccc1)n1ccnc1 [CLOTRIMAZOLE]
[15]
  MIC: 68 µg/mL (≈ 197 µM)
[16]
  MIC: 5 µg/mL (≈ 14.5 µM)
[17]
  MIC: 4 µg/mL (≈ 11.6 µM)
[4]
  MIC: 2 µg/mL (≈ 5.8 µM)
[18]
  inhibition zone (IZ): 14 mm

## CC(=O)N1CCN(c2ccc(OC[C@H]3CO[C@](Cn4ccnc4)(c4ccc(Cl)cc4Cl)O3)cc2)CC1
[19]
  inhibition zone (IZ): 25 mm
[20]
  MIC: 0.78 µg/mL (≈ 1.47 µM)
[21]
  MIC50: 0.78 µg/mL (≈ 1.47 µM)
[22]
  inhibition zone (IZ): 23 mm
[23]
  MIC: 0.78 µg/mL (≈ 1.47 µM)
[24]
  MIC: 18 µg/mL (≈ 33.9 µM)
[25]
  MIC: 0.78 µg/mL (≈ 1.47 µM)

## COC(=O)COc1cccc(OCC(=O)OC)c1C(=O)C[n+]1cc2ccccc2cn1.[Br-]
[6]
  MIC: 1.25 µg/mL

## O=C1N=C(n2[nH]c(=O)ccc2=O)S/C1=N\Nc1ccc(Cl)cc1Cl
[1]
  MIC: 2.1 µg/mL (≈ 5.47 µM)
[26]
  MIC: 0.6 µg/mL (≈ 1.56 µM)

## O=C(NNc1nc2ccccc2nc1/C=C/c1ccccc1O)Nc1cccc(Cl)c1
[27]
  MIC: 0.125 µM (≈ 0.054 µg/mL)

## CCOC(=O)c1c(C)nc2sc3c(ncn4nc(C)nc34)c2c1-c1cccs1
[8]
  inhibition zone (IZ): 25 mm
[28]
  inhibition zone (IZ): 25 mm

## CCOC(=O)c1c(C)nc2sc3c(-n4nc(C)cc4C)ncnc3c2c1-c1cccs1
[29]
  inhibition zone (IZ): 25 mm
[30]
  inhibition zone (IZ): 24 mm

## C[C@]12CC[C@H](O)CC1=CC[C@@H]1[C@@H]2CC[C@]2(C)C3=C(C[C@@H]12)C(c1ccccc1)N1C=CSC1=N3 (some centres undefined)
[31]
  MIC: 750 µg/mL
[32]
  MIC: > 1000 µg/mL
[33]
  MIC: > 1000 µg/mL

## Clc1ccc(C2CC(c3cnc(Cl)cn3)=Nc3ccccc3S2)c(Cl)c1 (centres undefined)
[34]
  MIC: 19 µM

## O=C1CS/C(=N\c2nn(-c3ccccc3)nc2C(=O)Nc2cnccn2)N1
[35]
  MIC: < 209 µg/mL

## O=c1ccc(=O)n(-c2nc(-c3cccs3)cs2)[nH]1
[36]
  MIC: 3.9 µg/mL (≈ 14.1 µM)
[37]
  MIC: 1.9 µg/mL (≈ 6.85 µM)

## Cc1n[nH]c2c(C#N)c(=O)n(-c3ccc(N)cc3)nc12
[3]
  MIC: 1.95 µg/mL (≈ 7.32 µM)

## CCOC(=O)c1c(C)nc2sc3c(=O)[nH]cnc3c2c1-c1cccs1
[29]
  inhibition zone (IZ): 25 mm
[8]
  inhibition zone (IZ): 25 mm

Reference: ChEMBL document CHEMBL6103565, “Current strategies in design and synthesis of antifungals hybrid and chimeric diazine derivatives” (Bioorg Med Chem, 2025)
